Tests used:
Format in all cases: in vivo, male Wistar rats
[1] = test system: DCX+ neuroblasts in the dentate gyrus of the hippocampus; test: Doublecortin (DCX) IHC, neuroblasts in the dentate gyrus 35 days post-TBI; details: 4.5 mg/kg IN twice daily; 35 days following TBI
Text: (§1) Young adult (2-3 months) male Wistar rats were subjected to a moderate traumatic brain injury (TBI) induced by controlled cortical impact (CCI). Animal models of TBI including the CCI model and functional tests have been described in detail in peer reviewed publications (Xiong et al., 2013, Nat Rev Neurosci.; Zhang et al., 2016, J Neurosurg.; Zhang et al., 2016, Neurochem Int.; Zhang et al., 2021, J Neurotrauma). Injury consisted of a single impact at 4.0 m/sec, 2.5 mm deformation to the left parietal cortex. In addition, a group of animals was left healthy/not injured to serve as a healthy control.
The substance used in this study was ALPHA-1062 at 4.5 mg/kg. As control treatment (vehicle) purified water was administered intranasally (IN). […]
Histological assessment was performed including quantitative image analysis protocols; followed by statistical analysis of the data. […]
For cell counting and quantitation NeuN+ cells were examined in the ipsilateral cortex, DG, CA1, and CA3 regions of the ipsilateral hippocampus. […] The number of BrdU+ cells (red-fluorophore) and NeuN (green-fluorophore)/BrdU-colabeled cells (yellow after merge) were counted. […] The immune-positive cells were determined and divided by the measured areas and presented as numbers per square mm. […]

[2] = test system: moderate traumatic brain injury (TBI) induced by controlled cortical impact (CCI); test: Novel object recognition (NOR) test after TBI
Description: FIG. 2: The figure illustrates functional tests that are carried out on healthy (sham surgery) no treatment, vehicle treated and ALPHA-1062 treated rats to assess sensorimotor and cognitive function after TBI. Sensimotor function tests. a) The figure depicts tests to assess the modified neurological severity score (mNSS). […] The animal is required to balance over a grid and the frequency of steps missing the grid are counted. This test assesses the functionality of the injured parietal cortex of the rat's brain. c) The adhesive removal test consists of applying adhesive tape on each forepaw of the animal and measuring the time-to-contact and the time-to-remove them. This behavior requires correct paw and mouth sensitivity (time-to-contact) and correct dexterity (time-to-remove). Cognitive function tests: a) This picture illustrates the Morris water maze that comprises that a rat is placed in a large circular pool (picture on the left) and is required to find an invisible platform that allows it to escape the water by using various visuo-spatial cues. This test is used to study spatial learning and memory and assesses hippocampal and select cortical brain region function. Usually, the path of the rat through the pool is tracked (picture on the right) and the time spend in the proximity of the platform as well as the time needed until the platform is found by the rat are measured. b) For the new/novel object recognition (NOR) test, after a habituation time in the test space (picture on far left) rats are given the opportunity to explore two identical objects (A) for a predetermined period of time (picture in the middle). After a delay, the animals are then presented with two objects to explore, one of which is the same as in the first exploration trial (A), the other a new object (B) (picture on the right). […]

[3] = test system: moderate traumatic brain injury (TBI) induced by controlled cortical impact (CCI); test: Morris water maze (MWM) test after TBI
Description: FIG. 2: The figure illustrates functional tests that are carried out on healthy (sham surgery) no treatment, vehicle treated and ALPHA-1062 treated rats to assess sensorimotor and cognitive function after TBI. Sensimotor function tests. a) The figure depicts tests to assess the modified neurological severity score (mNSS). […] The animal is required to balance over a grid and the frequency of steps missing the grid are counted. This test assesses the functionality of the injured parietal cortex of the rat's brain. c) The adhesive removal test consists of applying adhesive tape on each forepaw of the animal and measuring the time-to-contact and the time-to-remove them. This behavior requires correct paw and mouth sensitivity (time-to-contact) and correct dexterity (time-to-remove). Cognitive function tests: a) This picture illustrates the Morris water maze that comprises that a rat is placed in a large circular pool (picture on the left) and is required to find an invisible platform that allows it to escape the water by using various visuo-spatial cues. This test is used to study spatial learning and memory and assesses hippocampal and select cortical brain region function. Usually, the path of the rat through the pool is tracked (picture on the right) and the time spend in the proximity of the platform as well as the time needed until the platform is found by the rat are measured. b) For the new/novel object recognition (NOR) test, after a habituation time in the test space (picture on far left) rats are given the opportunity to explore two identical objects (A) for a predetermined period of time (picture in the middle). After a delay, the animals are then presented with two objects to explore, one of which is the same as in the first exploration trial (A), the other a new object (B) (picture on the right). Depending on the length of the delay between the two trials or depending on the extend of cortical damage, the rats will either explore the novel object for a greater time period, indicating memory for the familiar object, or will explore the novel and familiar objects for the same amount of time, indicating a lack of recall or loss of memory for the familiar object presented during the initial trial.
as §1
The animals were divided into 3 groups: • 1) TBI+Vehicle (purified water, n=10) • 2) TBI+ALPHA-1062 (4.5 mg/kg) (n=10) • 3) Healthy/not injured and not treated (Sham surgery) (n=10)
The substance used in this study was ALPHA-1062 at 4.5 mg/kg. As control treatment (vehicle) purified water was administered intranasally (IN). The ALPHA-1062 and the control treatment were initiated 2 hours after injury and continued twice daily (with a 6-hour interval) for 35 consecutive days.
During the in vivo part of the study cognitive functional tests were performed by conducting Morris water maze (MWM) tests and novel object recognition tests on all animals at 5 weeks after TBI, with the MWM test being performed on days 31-35 following TBI (see Table 1).
The Morris water maze (MWM) is a test used in behavioral neuroscience to study spatial learning and memory, for example in rats. It enables spatial learning and memory to be studied, and can also be used to assess damage to hippocampus and select cortical regions of the brain. […]

[4] = 4.5 mg/kg IN twice daily, days 33 to 35

SMILES: COc1ccc2c3c1O[C@H]1C[C@@H](OC(=O)c4ccccc4)C=C[C@@]31CCN(C)C2 [ALPHA-1062, (4aS,6R,8aS)-5,6,9,10,11,12-hexahydro-3-methoxy-11-methyl-4aH-[1]benzofuro[3a,3,2-ef][2]benzazepin-6-ol benzoate]
- DCX positive cells in dentate gyrus compared to sham surgery cohort [1]: comparable numbers
- DCX positive cells in dentate gyrus compared to vehicle [1]: higher number of DCX positive cells
- NOR, percentage of time spent exploring novel object (B) vs familiar object ([2]; 4.5 mg/kg IN twice daily, 5 weeks after TBI): statistically significant preference for the novel object
- Novel Object Recognition, performance over SHAM ([2]; rats after TBI, compared to healthy sham animals): equivalent to
- Novel Object Recognition, performance over VEHICLE ([2]; rats after TBI, compared to vehicle treatment): superior
- MWM % time in the correct quadrant, compared to uninjured (sham surgery) animals [3, 4]: equivalent amount of time
- MWM % time in the correct quadrant, compared to vehicle [3, 4]: statistically significantly better
- MWM latency to find the hidden escape platform, compared to uninjured (sham) animals [3, 4]: as well as the uninjured (sham) animals
- MWM latency to find the hidden escape platform, compared to vehicle [3, 4]: statistically significantly better
- Morris Water Maze (MWM), performance over SHAM ([3]; rats after TBI, ALPHA-1062 treatment compared to healthy sham animals): equivalent to
- Morris Water Maze (MWM), performance over VEHICLE ([3]; rats after TBI, ALPHA-1062 treatment compared to vehicle treatment): superior
